Test results as given in article doi:10.1101/2020.06.11.145995v1 (biorxiv, 2020).
Where two headings read alike, the source gives them in different places. One block for each molecule: values may come before it.

How the values were obtained:
Assay in all cases: biochemical
AXL = AXL (Homo sapiens, UniProt P30530)
CAMK1 = CAMK1 (Homo sapiens, UniProt Q14012)
CDC2L2 = CDC2L2 (Homo sapiens, UniProt Q9UQ88)
CDK11 = CDK11 (Homo sapiens, UniProt Q9BWU1)
CDK5 = CDK5 (Homo sapiens, UniProt Q00535)
CDKL1 = CDKL1 (Homo sapiens, UniProt Q00532)
CHEK2 = CHEK2 (Homo sapiens, UniProt O96017)
CLK1 = CLK1 (Homo sapiens, UniProt P49759)
CLK2 = CLK2 (Homo sapiens, UniProt P49760)
CSNK1E = CSNK1E (Homo sapiens, UniProt P49674)
CSNK1G3 = CSNK1G3 (Homo sapiens, UniProt Q9Y6M4)
DRAK2 = DRAK2 (Homo sapiens, UniProt O94768)
DYRK1A = DYRK1A (Homo sapiens, UniProt Q13627)
DYRK2 = DYRK2 (Homo sapiens, UniProt Q92630)
FES = FES (Homo sapiens, UniProt P07332)
FGFR1 = FGFR1 (Homo sapiens, UniProt P11362)
FGFR3 = FGFR3 (Homo sapiens, UniProt P22607)
FLT4 = FLT4 (Homo sapiens, UniProt P35916)
HIPK4 = HIPK4 (Homo sapiens, UniProt Q8NE63)
IKK-beta = IKK-beta (Homo sapiens, UniProt O14920)
JNK1 = JNK1 (Homo sapiens, UniProt P45983)
LATS1 = LATS1 (Homo sapiens, UniProt O95835)
LRRK2(G2019S) = LRRK2(G2019S) (Homo sapiens, UniProt Q5S007, G2019S)
MARK1 = MARK1 (Homo sapiens, UniProt Q9P0L2)
MARK2 = MARK2 (Homo sapiens, UniProt Q7KZI7)
MKNK1 = MKNK1 (Homo sapiens, UniProt Q9BUB5)
MLK2 = MLK2 (Homo sapiens, UniProt Q02779)
MST1R = MST1R (Homo sapiens, UniProt Q04912)
MTOR = MTOR (Homo sapiens, UniProt P42345)
MYO3A = MYO3A (Homo sapiens, UniProt Q8NEV4)
[1] = read-out: CPT-1-70-1 (1uM) % control
[2] = read-out: HYJ-2-002-1 (1uM) % control

Chain of CDKL1 (Q00532 whole entry): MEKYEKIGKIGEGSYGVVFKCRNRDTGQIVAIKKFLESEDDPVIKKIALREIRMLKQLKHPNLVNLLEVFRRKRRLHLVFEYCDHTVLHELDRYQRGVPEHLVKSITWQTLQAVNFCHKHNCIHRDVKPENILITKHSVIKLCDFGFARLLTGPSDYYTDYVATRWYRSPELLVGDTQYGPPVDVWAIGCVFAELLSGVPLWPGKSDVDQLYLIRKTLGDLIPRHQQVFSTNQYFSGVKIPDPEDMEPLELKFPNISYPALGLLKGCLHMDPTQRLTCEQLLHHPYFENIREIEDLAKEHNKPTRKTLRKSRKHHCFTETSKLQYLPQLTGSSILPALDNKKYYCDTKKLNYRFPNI
Chain of FGFR3 (P22607 whole entry): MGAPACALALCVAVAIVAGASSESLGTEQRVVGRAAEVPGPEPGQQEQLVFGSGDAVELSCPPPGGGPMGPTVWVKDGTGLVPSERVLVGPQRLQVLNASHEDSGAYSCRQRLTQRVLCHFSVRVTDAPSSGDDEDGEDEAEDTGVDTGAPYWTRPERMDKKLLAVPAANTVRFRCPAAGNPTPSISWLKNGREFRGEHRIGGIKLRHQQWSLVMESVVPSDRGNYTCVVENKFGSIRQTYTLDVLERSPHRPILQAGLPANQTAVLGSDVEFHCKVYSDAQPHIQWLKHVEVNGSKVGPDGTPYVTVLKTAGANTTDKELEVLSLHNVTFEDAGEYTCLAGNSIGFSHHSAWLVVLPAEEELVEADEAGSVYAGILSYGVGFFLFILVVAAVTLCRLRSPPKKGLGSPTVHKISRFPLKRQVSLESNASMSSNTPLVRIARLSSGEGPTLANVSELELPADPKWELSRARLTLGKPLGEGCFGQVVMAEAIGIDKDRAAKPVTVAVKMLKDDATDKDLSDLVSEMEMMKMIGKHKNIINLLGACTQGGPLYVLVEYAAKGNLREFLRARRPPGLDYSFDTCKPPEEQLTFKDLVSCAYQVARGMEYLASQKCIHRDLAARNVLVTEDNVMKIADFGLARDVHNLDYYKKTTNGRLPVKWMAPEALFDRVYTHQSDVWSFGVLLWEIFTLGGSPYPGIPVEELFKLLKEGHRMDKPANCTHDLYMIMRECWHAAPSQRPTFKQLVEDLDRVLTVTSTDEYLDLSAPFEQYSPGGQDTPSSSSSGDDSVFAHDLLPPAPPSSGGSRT
Chain of MKNK1 (Q9BUB5 whole entry): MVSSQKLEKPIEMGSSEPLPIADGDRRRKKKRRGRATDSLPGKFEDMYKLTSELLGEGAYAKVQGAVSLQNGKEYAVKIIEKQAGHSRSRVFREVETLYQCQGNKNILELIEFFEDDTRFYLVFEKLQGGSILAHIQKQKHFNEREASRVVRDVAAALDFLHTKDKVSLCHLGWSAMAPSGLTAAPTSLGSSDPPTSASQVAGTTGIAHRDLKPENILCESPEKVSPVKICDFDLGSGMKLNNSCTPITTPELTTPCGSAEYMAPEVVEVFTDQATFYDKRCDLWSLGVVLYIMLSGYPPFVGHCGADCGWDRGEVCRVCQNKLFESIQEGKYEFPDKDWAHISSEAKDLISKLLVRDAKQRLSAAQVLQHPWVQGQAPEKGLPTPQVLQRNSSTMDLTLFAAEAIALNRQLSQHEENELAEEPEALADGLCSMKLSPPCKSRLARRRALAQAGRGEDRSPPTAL
Chain of MYO3A (Q8NEV4 whole entry): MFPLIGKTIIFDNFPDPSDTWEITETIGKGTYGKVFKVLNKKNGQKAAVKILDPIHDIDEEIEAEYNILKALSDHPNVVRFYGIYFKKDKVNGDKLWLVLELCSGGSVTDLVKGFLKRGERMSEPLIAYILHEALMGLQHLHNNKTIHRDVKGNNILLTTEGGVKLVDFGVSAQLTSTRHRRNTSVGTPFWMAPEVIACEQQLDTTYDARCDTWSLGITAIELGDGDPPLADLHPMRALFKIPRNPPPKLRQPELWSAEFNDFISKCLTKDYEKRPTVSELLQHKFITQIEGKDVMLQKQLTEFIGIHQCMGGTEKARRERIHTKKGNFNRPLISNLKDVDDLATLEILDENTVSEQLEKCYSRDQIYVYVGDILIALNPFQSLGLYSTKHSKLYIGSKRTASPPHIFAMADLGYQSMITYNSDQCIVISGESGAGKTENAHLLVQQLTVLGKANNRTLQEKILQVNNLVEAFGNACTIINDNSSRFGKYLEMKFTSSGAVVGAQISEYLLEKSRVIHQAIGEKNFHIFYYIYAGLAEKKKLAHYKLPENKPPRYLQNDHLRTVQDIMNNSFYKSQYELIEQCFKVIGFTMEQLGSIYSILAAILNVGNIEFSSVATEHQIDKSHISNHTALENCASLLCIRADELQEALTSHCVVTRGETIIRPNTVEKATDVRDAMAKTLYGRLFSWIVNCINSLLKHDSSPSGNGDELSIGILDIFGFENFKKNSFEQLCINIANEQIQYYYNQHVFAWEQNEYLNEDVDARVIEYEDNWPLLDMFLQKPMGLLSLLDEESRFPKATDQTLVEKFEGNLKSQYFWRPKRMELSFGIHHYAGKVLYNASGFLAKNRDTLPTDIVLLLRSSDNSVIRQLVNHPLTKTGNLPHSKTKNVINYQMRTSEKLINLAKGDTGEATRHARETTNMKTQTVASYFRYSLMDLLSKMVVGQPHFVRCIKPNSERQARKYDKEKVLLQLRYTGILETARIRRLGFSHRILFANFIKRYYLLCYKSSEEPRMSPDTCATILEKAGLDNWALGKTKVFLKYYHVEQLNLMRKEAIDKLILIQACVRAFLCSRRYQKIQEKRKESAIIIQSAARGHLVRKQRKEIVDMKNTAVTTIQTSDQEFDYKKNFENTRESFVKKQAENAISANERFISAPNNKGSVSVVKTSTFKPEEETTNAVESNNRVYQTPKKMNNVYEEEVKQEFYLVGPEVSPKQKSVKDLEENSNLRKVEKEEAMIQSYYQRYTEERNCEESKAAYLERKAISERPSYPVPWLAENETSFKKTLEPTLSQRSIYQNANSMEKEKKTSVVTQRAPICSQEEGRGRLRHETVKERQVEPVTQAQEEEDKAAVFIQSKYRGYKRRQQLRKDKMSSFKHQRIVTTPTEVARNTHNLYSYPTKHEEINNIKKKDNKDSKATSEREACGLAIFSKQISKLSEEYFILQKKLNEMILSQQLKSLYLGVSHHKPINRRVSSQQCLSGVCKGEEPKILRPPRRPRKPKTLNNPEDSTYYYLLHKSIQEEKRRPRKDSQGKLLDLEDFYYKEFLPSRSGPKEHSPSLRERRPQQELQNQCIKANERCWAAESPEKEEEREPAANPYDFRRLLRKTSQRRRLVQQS
Chain of MST1R (Q04912 whole entry): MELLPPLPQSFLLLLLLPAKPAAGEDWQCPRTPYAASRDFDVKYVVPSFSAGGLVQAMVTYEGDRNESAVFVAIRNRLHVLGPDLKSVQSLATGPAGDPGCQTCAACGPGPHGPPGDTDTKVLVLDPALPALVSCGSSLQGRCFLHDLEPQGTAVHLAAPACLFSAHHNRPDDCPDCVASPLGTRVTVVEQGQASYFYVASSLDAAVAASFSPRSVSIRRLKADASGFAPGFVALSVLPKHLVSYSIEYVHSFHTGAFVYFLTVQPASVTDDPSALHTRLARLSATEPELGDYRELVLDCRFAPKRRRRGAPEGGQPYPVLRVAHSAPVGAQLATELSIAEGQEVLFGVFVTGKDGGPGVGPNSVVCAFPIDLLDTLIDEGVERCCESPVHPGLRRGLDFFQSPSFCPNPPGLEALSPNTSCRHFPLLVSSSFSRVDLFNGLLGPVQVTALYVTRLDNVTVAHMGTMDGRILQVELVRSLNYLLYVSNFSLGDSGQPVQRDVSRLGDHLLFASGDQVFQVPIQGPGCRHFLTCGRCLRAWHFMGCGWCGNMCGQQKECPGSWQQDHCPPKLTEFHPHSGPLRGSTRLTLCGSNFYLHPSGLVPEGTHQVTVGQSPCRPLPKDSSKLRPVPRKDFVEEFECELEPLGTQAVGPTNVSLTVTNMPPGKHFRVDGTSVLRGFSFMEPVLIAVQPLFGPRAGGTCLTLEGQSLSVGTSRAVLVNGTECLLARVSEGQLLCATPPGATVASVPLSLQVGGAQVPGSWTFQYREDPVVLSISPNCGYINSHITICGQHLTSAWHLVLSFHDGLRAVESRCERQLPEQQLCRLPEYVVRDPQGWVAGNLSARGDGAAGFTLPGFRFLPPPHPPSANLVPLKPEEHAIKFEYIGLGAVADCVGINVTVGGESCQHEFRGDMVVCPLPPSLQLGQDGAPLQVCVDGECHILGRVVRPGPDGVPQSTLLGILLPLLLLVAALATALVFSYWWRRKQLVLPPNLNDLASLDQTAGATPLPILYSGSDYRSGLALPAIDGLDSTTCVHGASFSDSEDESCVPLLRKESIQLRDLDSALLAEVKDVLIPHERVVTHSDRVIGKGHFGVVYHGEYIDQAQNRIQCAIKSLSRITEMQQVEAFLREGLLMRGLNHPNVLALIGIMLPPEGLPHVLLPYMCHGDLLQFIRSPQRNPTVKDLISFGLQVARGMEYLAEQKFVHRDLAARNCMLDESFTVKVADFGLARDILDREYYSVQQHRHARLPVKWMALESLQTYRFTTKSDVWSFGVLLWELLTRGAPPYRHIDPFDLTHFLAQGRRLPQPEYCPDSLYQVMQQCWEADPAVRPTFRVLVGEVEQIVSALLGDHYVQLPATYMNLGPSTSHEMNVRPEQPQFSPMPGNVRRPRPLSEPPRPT
Chain of CSNK1G3 (Q9Y6M4 whole entry): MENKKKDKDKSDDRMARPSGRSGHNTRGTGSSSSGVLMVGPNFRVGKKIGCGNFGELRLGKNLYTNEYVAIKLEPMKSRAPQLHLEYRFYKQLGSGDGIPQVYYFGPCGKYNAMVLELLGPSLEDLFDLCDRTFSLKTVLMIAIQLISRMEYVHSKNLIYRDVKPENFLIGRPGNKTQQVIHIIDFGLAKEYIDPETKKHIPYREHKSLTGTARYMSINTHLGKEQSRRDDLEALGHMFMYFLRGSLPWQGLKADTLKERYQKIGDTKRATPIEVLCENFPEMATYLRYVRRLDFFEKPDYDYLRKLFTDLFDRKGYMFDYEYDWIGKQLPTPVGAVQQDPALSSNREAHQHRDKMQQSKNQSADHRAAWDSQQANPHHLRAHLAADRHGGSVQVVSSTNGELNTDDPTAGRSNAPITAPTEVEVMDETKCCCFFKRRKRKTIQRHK

SMILES: CN1CCN(c2ccc(Nc3nc(Oc4ccc(NC(=O)CCl)cc4)c4cc[nH]c4n3)cc2)CC1 [CPT1-70-1]
remaining activity at 1 µM (AXL; [1]): 4.8% | remaining activity at 1 µM (CAMK1; [1]): 57% | remaining activity at 1 µM (CDC2L2; [1]): 100% | remaining activity at 1 µM (CDK11; [1]): 100% | remaining activity at 1 µM (CDK5; [1]): 100% | remaining activity at 1 µM (CDKL1; [1]): 66% | remaining activity at 1 µM (CHEK2; [1]): 38% | remaining activity at 1 µM (CLK1; [1]): 5.8% | remaining activity at 1 µM (CLK2; [1]): 22% | remaining activity at 1 µM (CSNK1E; [1]): 18% | remaining activity at 1 µM (CSNK1G3; [1]): 2.6% | remaining activity at 1 µM (DRAK2; [1]): 90% | remaining activity at 1 µM (DYRK1A; [1]): 100% | remaining activity at 1 µM (DYRK2; [1]): 100% | remaining activity at 1 µM (FES; [1]): 73% | remaining activity at 1 µM (FGFR1; [1]): 2.2% | remaining activity at 1 µM (FGFR3; [1]): 35% | remaining activity at 1 µM (FLT4; [1]): 81% | remaining activity at 1 µM (HIPK4; [1]): 74% | remaining activity at 1 µM (IKK-beta; [1]): 100% | remaining activity at 1 µM (JNK1; [1]): 2.4% | remaining activity at 1 µM (LATS1; [1]): 77% | remaining activity at 1 µM (LRRK2(G2019S); [1]): 2.6% | remaining activity at 1 µM (MARK1; [1]): 2.1% | remaining activity at 1 µM (MARK2; [1]): 10% | remaining activity at 1 µM (MKNK1; [1]): 100% | remaining activity at 1 µM (MLK2; [1]): 56% | remaining activity at 1 µM (MST1R; [1]): 100% | remaining activity at 1 µM (MTOR; [1]): 66% | remaining activity at 1 µM (MYO3A; [1]): 88%

remaining activity at 1 µM (AXL; [2]): 21% | remaining activity at 1 µM (CAMK1; [2]): 80% | remaining activity at 1 µM (CDC2L2; [2]): 76% | remaining activity at 1 µM (CDK11; [2]): 14% | remaining activity at 1 µM (CDK5; [2]): 100% | remaining activity at 1 µM (CDKL1; [2]): 94% | remaining activity at 1 µM (CHEK2; [2]): 63% | remaining activity at 1 µM (CLK1; [2]): 57% | remaining activity at 1 µM (CLK2; [2]): 85% | remaining activity at 1 µM (CSNK1E; [2]): 75% | remaining activity at 1 µM (CSNK1G3; [2]): 65% | remaining activity at 1 µM (DRAK2; [2]): 57% | remaining activity at 1 µM (DYRK1A; [2]): 62% | remaining activity at 1 µM (DYRK2; [2]): 96% | remaining activity at 1 µM (FES; [2]): 13% | remaining activity at 1 µM (FGFR1; [2]): 1.2% | remaining activity at 1 µM (FGFR3; [2]): 28% | remaining activity at 1 µM (FLT4; [2]): 3.8% | remaining activity at 1 µM (HIPK4; [2]): 2.6% | remaining activity at 1 µM (IKK-beta; [2]): 0.3% | remaining activity at 1 µM (JNK1; [2]): 72% | remaining activity at 1 µM (LATS1; [2]): 100% | remaining activity at 1 µM (LRRK2(G2019S); [2]): 83% | remaining activity at 1 µM (MARK1; [2]): 100% | remaining activity at 1 µM (MARK2; [2]): 64% | remaining activity at 1 µM (MKNK1; [2]): 84% | remaining activity at 1 µM (MLK2; [2]): 93% | remaining activity at 1 µM (MST1R; [2]): 100% | remaining activity at 1 µM (MTOR; [2]): 93% | remaining activity at 1 µM (MYO3A; [2]): 59%
SMILES: CCN1CCN(Cc2ccc(NC(=O)c3ccc(C)c(CCc4cnc5[nH]ccc5c4OC)c3)cc2C(F)(F)F)CC1 [HYJ-2-002-1]
